Like-named read-outs stand apart in the source and are kept apart here.
System: Passive cutaneous anaphylaxis
Assay: Passive cutaneous anaphylaxis (PCA) in rats
Format: in vivo
Details: Rattus norvegicus, read-out: ED50 (dose of drug giving 50% inhibition), dosed immediately prior to challenge, male rats, ovalbumen antigen
Protocol: Passive cutaneous anaphylaxis (PCA) in rats
The following compounds were tested for their physiological activity in the test: methyl 8-chloro-4H-imidazo-[2,1-c][1,4]-benzoxazine-2-carboxylate (compound A), methyl 8-methyl-4H-imidazo-[2,1-c][1,4]-benzoxazine-2-carboxylate (compound B), 8-chloro-4H-imidazo-[2,1-c][1,4]-benzoxazine-2-carboxylic acid (compound C), 7-methyl-4H-imidazo-[2,1-c][1,4]-benzoxazine-2-carboxylic acid (compound D), 8-chloro-7-methyl-4H-imidazo-[2,1-c][1,4]-benzoxazine-2-carboxylic acid (compound E), 6-methoxy-4H-imidazo-[2,1-c][1,4]-benzoxazine-2-carboxylic acid (compound F) and 8-methyl-4H-imidazo-[2,1-c][1,4]-benzoxazine-2-carboxylic acid (compound G).
Cutaneous anaphylaxis was induced in rats by intradermal (ID) sensitization with antiserum followed three days later by systemic challenge with antigen. Evans blue dye injected with the antigen is used as a marker to assess the severity of the local response. Anti-allergic drugs inhibit this reaction. This method has been described by OVARY (1962) "Passive Cutaneous Anaphylaxis in Allergology" Page 358-367 Ed. Brown: Pergamon Press. Animals: -male rats weighing 180-220 grams are used in groups of seven.
Preparation of Antigen for Sensitization (Alum precipitated ovalbumen)
1. Wash 120 grams of Al(OH)3 gel in 140 ml of saline (use of a macerater facilitates mixing).
2. Centrifuge at 3,000 rpm for about 10 minutes.
3. Resuspend the precipitate with 300 ml of albumen egg powder (1.3 mg/ml) in saline and allow to stand for 30 minutes.
4. Centrifuge at 3,000 rpm for 10 minutes.
5. Weigh the wet precipitate and to each gram weight add 1 ml of saline. Store in refrigerator (Quantity sufficient for 60 rats for a 3 day sensitization program).
Preparation of Antiserum (anti-ovalbumen)
1 ml of the alum precipitated ovalbumen was injected subcutaneously into rats weighing 180-200 grams on days 0,2,4. The rats were bled on day 14 either by cardiac puncture or via the dorsal abdominal aorta. Equal quantities of serum from each animal were pooled and thoroughly mixed and 2 ml aliquots were stored at -20° C. in plastic tubes.
The antiserum for sensitization was diluted so that an ID injection of 0.1 ml into control animals would give an average score of a single spot of between 2.0-3.5 using 5 point scoring system.
(A) SENSITIZATION: The rats were anaesthetized Nembutal (40-60 mg/kg i.p) and were then sensitized by four ID injections (0.1 ml each) on their shaved backs. The animals were then left for a period of three days to develop sensitization.
(B) […]: The sensitized rats were dosed orally or intraveneously with the drug immediately prior to intraveneous challenge via the superficial penile vein with 1 ml of an antigen/Evans blue mixture (1 mg albumen egg powder in 0.5 ml saline plus 0.5 ml of 1% Evans blue). The injections were speeded up by using an automatic 1 ml self-filling glass syringe. The "challenged" rats were killed after 30 minutes, (usually pithed) and their skin on the dorsal surface was removed. The degree and area of blueing, proportional to the anaphylactic reaction was assessed on a five point scoring system.
1. Total scores for sites 1,2,3 and 4=X
2. Mean value of X for each group=X
X c=X for control group [formula] 5.
ED50 values for the compounds tested in the passive cutaneous anaphylaxis screen (in rats) are as follows: […]

## Cc1cc2c(cc1Cl)-n1cc(C(=O)O)nc1CO2 [E, 8-chloro-7-methyl-4H-imidazo-[2,1-c][1,4]-benzoxazine-2-carboxylic acid]
I.V. (intravenous)
  ED50: 0.75 mg/kg

## Cc1ccc2c(c1)-n1cc(C(=O)O)nc1CO2 [G, 8-methyl-4H-imidazo-[2,1-c][1,4]-benzoxazine-2-carboxylic acid]
I.V. (intravenous)
  ED50: 0.35 mg/kg
P.O. (oral)
  ED50: 0.37 mg/kg

## COC(=O)c1cn2c(n1)COc1ccc(C)cc1-2 [B, methyl 8-methyl-4H-imidazo-[2,1-c][1,4]-benzoxazine-2-carboxylate]
P.O. (oral)
  ED50: 1.46 mg/kg

## O=C(O)c1cn2c(n1)COc1ccc(Cl)cc1-2 [C, 8-chloro-4H-imidazo-[2,1-c][1,4]-benzoxazine-2-carboxylic acid]
I.V. (intravenous)
  ED50: 0.42 mg/kg
P.O. (oral)
  ED50: 0.13 mg/kg

## Cc1ccc2c(c1)OCc1nc(C(=O)O)cn1-2 [D, 7-methyl-4H-imidazo-[2,1-c][1,4]-benzoxazine-2-carboxylic acid]
I.V. (intravenous)
  ED50: 0.39 mg/kg
P.O. (oral)
  ED50: 4 mg/kg

## COC(=O)c1cn2c(n1)COc1ccc(Cl)cc1-2 [A, methyl 8-chloro-4H-imidazo-[2,1-c][1,4]-benzoxazine-2-carboxylate]
P.O. (oral)
  ED50: 2.79 mg/kg

## COc1cccc2c1OCc1nc(C(=O)O)cn1-2 [F, 6-methoxy-4H-imidazo-[2,1-c][1,4]-benzoxazine-2-carboxylic acid]
I.V. (intravenous)
  ED50: 3.27 mg/kg

— patent publication US4207318A, “Novel imidazobenzoxazines” (Roussel Uclaf, priority 1977, dated 1980)
